Laboratory results published in US11872199B2, “Topical formulations of cyclooxygenase inhibitors and their use” (SMARTECH TOPICAL, INC., priority 2019, dated 2024).

Experiments:
[1] = Franz diffusion cell skin permeation testing of diclofenac formulations; assay type: in vitro ADME, human; details: Example 7, as permeation enhancer in 2% diclofenac formulation
Experimental: Franz diffusion cell experiments were used to analyze flux rates of diclofenac from compositions taught under the present disclosure across human skin. See, e.g., Bartosova and Bajgar, Transdermal Drug Delivery In Vitro Using Diffusion Cells, Curr. Med. Chem. 2012, 19: 4671-4677.
In the examples described herein, Franz diffusion cells (“FDC”s) with a 3.3 mL receptor well volume were used, with either porcine skin or human cadaver skin. For human cadaver skin, split thickness human cadaver skin (0.015″-0.018″) was obtained from AlloSource (Centennial, Colo.) or Skin Bank New York Firefighters (New York, N.Y.). The skin tissue was dermatomed by the tissue bank to a thickness of some 250 μm and shipped frozen on dry ice. […]
The integrity and quality of each skin piece was tested prior to application of the test formulations through measurement of the transdermal flux of tritiated water or of the transepidermal electrical resistance (“TEER”) (skin integrity was usually not tested on porcine skin pieces). […] An alternating current (“AC”) signal, 100 mV root mean square (“RMS”) at 100 Hz, was applied across the skin using a waveform generator and the impedance is then measured with a digital multimeter and the results recorded in kΩ. Any FDC showing anomalously low impedance (nominally <2 kΩ) was discarded and the FDCs were ranked according to the magnitudes of the measured impedance readings. […]

[2] = printed as negative log P; cited from earlier work

| Compound | effect on penetration of diclofenac [1] | log P [2] |
| --- | --- | --- |
| CCCCCCCC/C=C\CCCCCCCC(=O)O [Oleic Acid, cis-9-octadecenoic acid] | enhance penetration of diclofenac | – |
| CCCCCCCC/C=C\CCCCCCCCO [Oleyl Alcohol, oleyl alcohol] | enhance penetration of diclofenac | – |
| CCOCCOCCO [Transcutol, 2-(2-Ethoxyethoxy)ethanol] | – | ~-0.5 |
